Experimental data taken from patent publication US12071450B2, “Salts of conjugates for cancer therapy” (Biosight Ltd., priority 2015, dated 2024).
Where a name gives a salt, the structure may show the parent alone. Blank lines part the entries; values can stand above or below the compound they belong to.

Columns and labels:
[1] = Stability (decomposition) in solvents; type: physicochemical; details: rate is determined by heat and time
[2] = system: L1210 leukemia cancer cells; test: MTT proliferation assay, L1210 leukemia cancer cells; type: cell-based; details: 72 hr incubation, formulated in saline, 6 replicates
Experimental: The L1210 leukemia cancer cells were grown in DMEM medium with 10% Donor Horse Serum, 1% Glutamine, 1% Non-essential Amino Acids, 0.1% Amphotericin, and 0.1% Gentamicin. Cells were diluted and seeded into 96-wells plate 2000 cells/ml, 400 cells/well, in a volume of 0.2 ml per well. The plates were incubated at 37° C. for 180 min. Following incubation, test substances were added at increasing concentrations from […] formulated in saline in 6 replicates each. The tested substances were Asp(Cytarabine).Acetate salt form, Asp(Cytarabine).hydrochloride salt form, Asp(Cytarabine).Methansulfonate salt form, Asp(Cytarabine).Benzenesulfonate salt form and Asp(Cytarabine).phosphate salt form. Test plates also included 6 replicate wells of saline as control. Plates were incubated at 37° C. for 72 hr prior to analysis. At the end of the exposure period, an MTT [3-(4,5-dimethylthiazole-2-yl)-2,5-diphenyl tetrazolium bromide] assay was performed. To each test well MTT at concentration of 5 mg/ml was added in a volume of 0.02 ml. Plates were incubated at 37° C. for 3 hr, then centrifuged at 3500 rpm for 6 minutes and the supernatants were aspirated. The pellets which contained MTT crystals were dissolved in 0.2 ml DMSO each. Absorbance was determined using ELISA reader at a wavelength of 570 nm.

[3] = Solubility in water and organic solvents; type: physicochemical
[4] = system: HL-60, Human promyelocytic leukemia; test: MTT proliferation assay, HL-60 cells; type: cell-based; details: 3 replicates
[5] = system: CCRF-SB, Human acute lymphoblastic leukemia; test: MTT proliferation assay, CCRF-SB cells; type: cell-based; details: 3 replicates
[6] = system: CCRF-CEM, Human acute lymphoblastic leukemia; test: MTT proliferation assay, CCRF-CEM cells; type: cell-based; details: 3 replicates
[7] = system: Molt-4, Human acute lymphoblastic leukemia; test: MTT proliferation assay, Molt-4 cells; type: cell-based; details: 3 replicates
[8] = system: K562, Human chronic myelogenous leukemia; test: MTT proliferation assay, K562 cells; type: cell-based; details: 3 replicates

Compound: Asp(Cytarabine).methanesulfonate
IC50 [2]: 2 nM

Compound: NC(CC(=O)Nc1ccn([C@@H]2O[C@H](CO)C(O)C2O)c(=O)n1)C(=O)O (some centres unmarked) [Asp(Cytarabine)•Acetate salt form, Asp(Cytarabine).Acetate]
IC50 [4]: 262 nM | IC50 [5]: 19000 nM | IC50 [6]: 23 nM | IC50 [7]: 12 nM | IC50 [8]: 355 nM | IC50 [2]: 116 nM

Compound: Asp(Cytarabine).benzenesulfonate
IC50 [2]: 23 nM

The next lines start with the values.

stability in strong polar aprotic solvents ([1]; DMSO and DMF): decompose | stability in water ([1]; water): decompose | IC50 [2]: 240 nM | solubility in organic solvents ([3]; most organic solvents: acetonitrile, ethers, ketones, halogenated solvents): insoluble | solubility in water ([3]; water): soluble
Compound: Cl.NC(CC(=O)Nc1ccn([C@@H]2O[C@H](CO)C(O)C2O)c(=O)n1)C(=O)O (some centres unmarked) [Asp(Cytarabine)•hydrochloride salt form, Asp(Cytarabine).HCl]

IC50 [2]: 34 nM
Compound: Asp(Cytarabine).phosphate [Asp(Cytarabine)•phosphate salt form]
